Counter-ions that a name gives are not always drawn.
Row | SMILES | melting point
1 | CCc1ccc(-c2cc3ncnc(Nc4ccc5[nH]ccc5c4)c3s2)cc1 [Example 13, [6-(4-Ethyl-phenyl)-thieno[3,2-d]pyrimidin-4-yl]-(1H-indol-5-yl)-amine] | 171 to 182 °C
2 | COCCCNCc1ccc(-c2cc3ncnc(Nc4ccc5[nH]ccc5c4)c3s2)cc1 [Example 22, (1H-Indol-5-yl)-(6-{4-[(3-methoxy-propylamino)-methyl]-phenyl}-thieno[3,2-d]pyrimidin-4-yl)-amine] | 160 to 175 °C
3 | CN(C)CCCNCc1ccc(-c2cc3ncnc(Nc4ccc5[nH]ccc5c4)c3s2)cc1 [Example 36, N-{4-[4-(1H-Indol-5-ylamino)-thieno[3,2-d]pyrimidin-6-yl]-benzyl}-N′,N′-dimethyl-propane-1,3-diamine] | 148 to 160 °C
4 | CN(C)CCNCc1ccc(-c2cc3ncnc(Nc4ccc5[nH]ccc5c4)c3s2)cc1 [Example 18, N-{4-[4-(1H-Indol-5-ylamino)-thieno[3,2-d]pyrimidin-6-yl]-benzyl}-N′,N′-dimethyl-ethane-1,2-diamine] | 170 to 183 °C
5 | OCCOCCNCc1ccc(-c2cc3ncnc(Nc4ccc5[nH]ccc5c4)c3s2)cc1 (as salt: mesylate) [Example 30, 2-(2-(4-[4-(1H-Indol-5-ylamino)-thieno[3,2-d]pyrimidin-6-yl]-benzylamino}-ethoxy)-ethanol] | 111 to 119 °C
6 | c1nc(Nc2ccc3[nH]ccc3c2)c2sc(-c3ccc(CN4CCOCC4)cc3)cc2n1 [Example 37, (1H-Indol-5yl)-[6-(4-morpholin4-ylmethyl-phenyl)-thieno[3,2-d]pyrimidin-4-yl]-amine] | 141 to 152 °C
7 | O=[N+]([O-])c1cccc(-c2cc3ncnc(Nc4ccc5[nH]ccc5c4)c3s2)c1 [Example 10, (1H-Indol-5-yl)-[6-(3-nitro-phenyl)-thieno[3,2-d]pyrimidin-4-yl]-amine] | 175 to 183 °C
8 | CNCc1ccc(-c2cc3ncnc(Nc4ccc5[nH]ccc5c4)c3s2)cc1 (as salt: mesylate) [Example 25, (1H-Indol-5-yl)-[6-(4-methylaminomethyl-phenyl)-thieno[3,2-d]pyrimidin-4-yl]-amine] | 140 to 147 °C
9 | c1nc(Nc2ccc3[nH]ccc3c2)c2sc(-c3ccsc3)cc2n1 [Example 8, (1H-indol-5-yl)-(6-thiophen-3-yl-thieno[3,2-d]pyrimidin-4-yl)-amine] | 178 to 189 °C
10 | c1csc(CNCc2ccc(-c3cc4ncnc(Nc5ccc6[nH]ccc6c5)c4s3)cc2)c1 (as salt: mesylate) [Example 33, (1H-Indol-5-yl)-[6-(4-{[(thiophen-2-ylmethyl)-amino]-methyl}-phenyl)-thieno[3,2-d]pyrimidin-4-yl]-amine] | 111 to 121 °C
11 | Cc1ccc(-c2cc3ncnc(Nc4ccc5[nH]ccc5c4)c3s2)cc1 [Example 6, (1H-Indol-5-yl)-(6-p-tolyl-thieno[3,2-d]pyrimidin-4-yl)-amine] | 200 to 220 °C
12 | c1coc(CNCc2ccc(-c3cc4ncnc(Nc5ccc6[nH]ccc6c5)c4s3)cc2)c1 [Example 34, [6-(4-{[(Furan-2-ylmethyl)-amino]-methyl}-phenyl)-thieno[3,2-d]pyrimidin-4-yl]-(1H-indol-5-yl)-amine] | 125 to 134 °C
13 | Clc1ccc(-c2cc3ncnc(Nc4ccc5[nH]ccc5c4)c3s2)cc1 [Example 3, [6-(4-Chloro-phenyl)-thieno[3,2-d]pyrimidin-4-yl]-(1H-indol-5-yl)-amine] | 190 to 210 °C
14 | OCCNCCNCc1ccc(-c2cc3ncnc(Nc4ccc5[nH]ccc5c4)c3s2)cc1 (as salt: mesylate) [Example 31, 2-(2-{4-[4-(1H-indol-5-ylamino)-thieno[3,2-d]pyrimidin-6-yl]-benzylamino}-ethylamino)-ethanol] | 78 to 95 °C
15 | CCCNCc1ccc(-c2cc3ncnc(Nc4ccc5[nH]ccc5c4)c3s2)cc1 [Example 21, (1H-Indol-5-yl)-[6-(4-propylaminomethyl-phenyl)-thieno[3,2-d]pyrimidin-4-yl]-amine] | 190 to 205 °C
16 | CSc1ccc(-c2cc3ncnc(Nc4ccc5[nH]ccc5c4)c3s2)cc1 [Example 9, (1H-Indol-5-yl)-[6-(4-methylsulfanyl-phenyl)-thieno[3,2-d]pyrimidin-4-yl]-amine] | 163 to 178 °C
17 | Fc1ccc(-c2cc3ncnc(Nc4ccc5[nH]ccc5c4)c3s2)cc1Cl [Example 12, [6-(3-Chloro-4-fluoro-phenyl)-thieno[3,2-d]pyrimidin-4-yl]-(1H-indol-5-yl)-amine] | 175 to 183 °C
18 | COC(=O)CCNCc1ccc(-c2cc3ncnc(Nc4ccc5[nH]ccc5c4)c3s2)cc1 (as salt: HCl) [Example 17, 3-{4-[4-(1H-Indol-5-ylamino)-thieno[3,2-d]pyrimidin-6-yl]-benzylamino}-propionic Acid Methyl Ester] | 105 to 118 °C
19 | CN1CCN(Cc2ccc(-c3cc4ncnc(Nc5ccc6[nH]ccc6c5)c4s3)cc2)CC1 (as salt: mesylate) [Example 26, (1H-Indol-5-yl)-{6-[4-(4-methyl-piperazin-1-ylmethyl)-phenyl]-thieno[3,2-d]pyrimidin-4-yl}-amine] | 143 to 150 °C
20 | c1nc(Nc2ccc3[nH]ccc3c2)c2sc(-c3ccc(CNCCN4CCOCC4)cc3)cc2n1 [Example 24, (1H-Indol-5-yl)-(6-{4-[(2-morpholin-4-yl-ethylamino)-methyl]-phenyl}-thieno[3,2-d]pyrimidin-4-yl)-amine] | 100 to 111 °C
21 | COc1ccc(-c2cc3ncnc(Nc4ccc5[nH]ccc5c4)c3s2)cc1OC [Example 16, [6-(3,4-Dimethoxy-phenyl)-thieno[3,2-d]pyrimidin-4-yl]-(1H-indol-5-yl)-amine] | 171 to 178 °C

More lines, now with the values ahead:

Row | melting point | SMILES
22 | 243 to 249 °C | COc1ccc(-c2cc3ncnc(Nc4ccc5[nH]ccc5c4)c3s2)cn1 [Example 86, (1H-Indol-5-yl)-[6-(6-methoxy-pyridin-3-yl)-thieno[3,2-d]pyrimidin-4-yl]-amine]
23 | 142 to 155 °C | CC(=O)NCCNCc1ccc(-c2cc3ncnc(Nc4ccc5[nH]ccc5c4)c3s2)cc1 [Example 43, N-(2-{4-[4-(1H-Indol-5-ylamino)-thieno[3,2-d]pyrimidin-6-yl]-benzylamino}-ethyl)-acetamide]
24 | 170 to 171 °C | Cc1cccc(Nc2ccc(Nc3ncnc4cc(-c5ccccc5)sc34)cc2)c1 [Example 63, N-(6-Phenyl-thieno[3,2-d]pyrimidin-4-yl)-N′-m-tolyl-benzene-1,4-diamine]
25 | 221 to 223 °C | Cc1c[nH]c2ccc(Nc3ncnc4cc(-c5ccccc5)sc34)cc12 [Example 82, (3-Methyl-1H-indol-5-yl)-(6-phenyl-thieno[3,2-d]pyrimidin-4-yl)-amine]
26 | 221 to 222 °C | Cc1ccc(Nc2ccc(Nc3ncnc4cc(-c5ccccc5)sc34)cc2)cc1 [Example 64, N-(6-Phenyl-thieno[3,2-d]pyrimidin-4-yl)-N′-p-tolyl-benzene-1,4-diamine]
27 | 205 to 210 °C | Cc1nc(Nc2ccc3[nH]ccc3c2)c2sc(-c3ccccc3)cc2n1 [Example 71, (1H-Indol-5-yl)-(2-methyl-6-phenyl-thieno[3,2-d]pyrimidin-4-yl)-amine]
28 | 189 to 191 °C | COc1cccc(Nc2ccc(Nc3ncnc4cc(-c5ccccc5)sc34)cc2)c1 [Example 66, N-(3-Methoxy-phenyl)-N′-(6-phenyl-thieno[3,2-d]pyrimidin-4-yl)-benzene-1,4-diamine]
29 | 231 to 240 °C | COc1ccc(Nc2ccc(Nc3ncnc4cc(-c5cccs5)sc34)cc2)cc1 [Example 81, N-(4-Methoxy-phenyl)-N′-(6-thiophen-2-yl-thieno[3,2-d]pyrimidin-4-yl)-benzene-1,4-diamine]
30 | 210 to 211 °C | COc1ccc(Nc2ccc(Nc3ncnc4cc(-c5ccccc5)sc34)cc2)cc1 [Example 62, N-(4-Methoxy-phenyl)-N′-(6-phenyl-thieno[3,2-d]pyrimidin-4-yl)-benzene-1,4-diamine]
31 | 218 to 220 °C | Cc1cc2cc(Nc3ncnc4cc(-c5ccccc5)sc34)ccc2[nH]1 [Example 68, (2-Methyl-1H-indol-5-yl)-(6-phenyl-thieno[3,2-d]pyrimidin-4-yl)-amine]
32 | 160 to 161 °C | COc1ccc(Nc2ccc(Nc3ncnc4cc(-c5ccccc5)sc34)cc2)cc1OC [Example 65, N-(3,4-Dimethoxy-phenyl)-N′-(6-phenyl-thieno[3,2-d]pyrimidin-4-yl)-benzene-1,4-diamine]
33 | 98 to 115 °C | CCOC(=O)CNC(=O)CNCc1ccc(-c2cc3ncnc(Nc4ccc5[nH]ccc5c4)c3s2)cc1 [Example 38, (2-{4-[4-(1H-indol-5-ylamino)-thieno[3,2-d]pyrimidin-6-yl]-benzylamino}-acetylamino)-acetic acid ethyl ester]
34 | 161 to 177 °C | COCC1CCCN1Cc1ccc(-c2cc3ncnc(Nc4ccc5[nH]ccc5c4)c3s2)cc1 (centres unmarked) [Example 42, (1H-Indol-5-yl)-{6-[4-(2-methoxymethyl-pyrrolidin-1-ylmethyl)-phenyl]-thieno[3,2-d]pyrimidin-4-yl}-amine]
35 | 178 to 180 °C | CCN(CC)CCCn1ccc2cc(Nc3ncnc4cc(-c5ccccc5)sc34)ccc21 [Example 70, [1-(3-Diethylamino-propyl)-1H-indol-5-yl]-(6-phenyl-thieno[3,2-d]pyrimidin-4-yl) -amine]
36 | 167 to 174 °C | O=C(c1ccco1)N1CCN(Cc2ccc(-c3cc4ncnc(Nc5ccc6[nH]ccc6c5)c4s3)cc2)CC1 [Example 46, Furan-2-yl-(4-{4-[4-(1H-indol-5-ylamino)-thieno[3,2-d]pyrimidin-6-yl]-benzyl}-piperazin-1-yl)-methanone]
37 | 201 to 203 °C | c1ccc(COCCNc2ccc(Nc3ncnc4cc(-c5ccccc5)sc34)cc2)cc1 [Example 73, N-(2-Benzyloxy-ethyl)-N′-(6-phenyl-thieno[3,2-d]pyrimidin-4-yl)-benzene-1,4-diamine]
38 | 175 to 184 °C | COc1ccc(Nc2ccc(Nc3ccnc4cc(-c5ccc(OC)nc5)sc34)cc2)cc1 [Example 87, N-(4-Methoxy-phenyl)-N′-[2-(6-methoxy-pyridin-3-yl)-thieno[3,2-b]pyridin-7-yl]-benzene-1,4-diamine]
